According to article PMC11897194 (Nature Communications, 2025):

Target: T1, EfAvs5 (Kosakonia oryzae, UniProt A0AA94GZI5)
T1 sequence (A0AA94GZI5 1-849): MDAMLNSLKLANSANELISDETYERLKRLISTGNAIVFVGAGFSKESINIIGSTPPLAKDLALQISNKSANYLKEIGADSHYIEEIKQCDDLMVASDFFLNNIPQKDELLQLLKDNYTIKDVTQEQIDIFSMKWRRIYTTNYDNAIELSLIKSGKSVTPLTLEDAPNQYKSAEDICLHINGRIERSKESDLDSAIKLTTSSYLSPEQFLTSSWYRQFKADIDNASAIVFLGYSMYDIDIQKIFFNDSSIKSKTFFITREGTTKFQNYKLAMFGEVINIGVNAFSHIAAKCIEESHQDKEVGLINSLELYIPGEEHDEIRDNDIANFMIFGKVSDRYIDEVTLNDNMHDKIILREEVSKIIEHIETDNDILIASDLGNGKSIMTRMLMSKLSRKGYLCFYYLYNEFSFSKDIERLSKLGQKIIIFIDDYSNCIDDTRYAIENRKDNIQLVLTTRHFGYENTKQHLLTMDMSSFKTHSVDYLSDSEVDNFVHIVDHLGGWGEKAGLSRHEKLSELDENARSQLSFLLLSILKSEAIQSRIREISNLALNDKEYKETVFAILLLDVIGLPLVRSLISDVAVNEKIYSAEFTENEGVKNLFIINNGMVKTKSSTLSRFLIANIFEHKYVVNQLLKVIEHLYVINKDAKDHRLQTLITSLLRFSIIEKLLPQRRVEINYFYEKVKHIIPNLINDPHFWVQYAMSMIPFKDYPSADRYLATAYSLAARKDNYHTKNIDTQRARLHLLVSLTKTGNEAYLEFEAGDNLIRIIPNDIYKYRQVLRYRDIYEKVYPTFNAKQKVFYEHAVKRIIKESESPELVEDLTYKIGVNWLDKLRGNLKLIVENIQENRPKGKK
Experiment: biochemical

Ki: 1740 ± 98 µM
SMILES: Nc1ncnc2c1ncn2[C@@H]1O[C@H](COP(=O)(O)OP(=O)(O)OP(=O)(O)O)[C@@H](O)[C@H]1O [ATP]
